Holding throughout (type): cell-based
In assay [1] the target is T1, P2X1 (Homo sapiens, UniProt P51575).
T1 sequence (P51575 1-399): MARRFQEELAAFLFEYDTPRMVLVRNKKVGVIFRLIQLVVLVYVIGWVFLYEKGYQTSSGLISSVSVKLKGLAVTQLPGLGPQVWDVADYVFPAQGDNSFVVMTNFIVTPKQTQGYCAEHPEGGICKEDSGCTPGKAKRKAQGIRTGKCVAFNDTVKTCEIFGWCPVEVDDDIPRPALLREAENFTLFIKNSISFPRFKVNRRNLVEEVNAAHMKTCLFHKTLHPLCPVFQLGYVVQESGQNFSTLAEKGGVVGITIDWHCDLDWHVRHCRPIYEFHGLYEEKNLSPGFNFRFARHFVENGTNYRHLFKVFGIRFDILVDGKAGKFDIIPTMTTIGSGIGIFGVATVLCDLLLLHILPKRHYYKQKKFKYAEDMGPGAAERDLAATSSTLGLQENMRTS
As to the kind of experiment: FLUO-4 flow cytometry of extracellular Ca2+ entry in human platelets. The settings on record: read-out: Ap4A Agonist Activity. In general terms: Flow cytometry measures light scatter and fluorescence of single cells or particles in a stream.

For assay [2], the target named is P2Y1 (Homo sapiens, UniProt P47900). As to the kind of experiment: inhibition of […] ADP-induced cytosolic Ca2+ increase in human platelets.
Assay [3] deals with P2Y12 (Homo sapiens, UniProt Q9H244). The assay can be described thus: VASP phosphorylation flow cytometry in human whole blood platelets.

This note sets out measurements from publication PMC2826549 (Thrombosis research, 2009).

P2Y12, sequence (Q9H244 whole entry): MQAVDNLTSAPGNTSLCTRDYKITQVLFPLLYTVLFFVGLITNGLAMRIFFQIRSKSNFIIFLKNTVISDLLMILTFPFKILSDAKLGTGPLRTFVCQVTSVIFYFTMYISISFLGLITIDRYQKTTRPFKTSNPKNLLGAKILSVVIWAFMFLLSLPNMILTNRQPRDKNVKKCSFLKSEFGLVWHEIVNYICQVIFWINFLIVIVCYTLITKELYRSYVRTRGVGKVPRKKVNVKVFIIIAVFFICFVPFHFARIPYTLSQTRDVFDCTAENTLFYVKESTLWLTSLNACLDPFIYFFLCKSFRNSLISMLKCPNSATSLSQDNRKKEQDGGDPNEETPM
P2Y1, sequence (P47900 whole entry): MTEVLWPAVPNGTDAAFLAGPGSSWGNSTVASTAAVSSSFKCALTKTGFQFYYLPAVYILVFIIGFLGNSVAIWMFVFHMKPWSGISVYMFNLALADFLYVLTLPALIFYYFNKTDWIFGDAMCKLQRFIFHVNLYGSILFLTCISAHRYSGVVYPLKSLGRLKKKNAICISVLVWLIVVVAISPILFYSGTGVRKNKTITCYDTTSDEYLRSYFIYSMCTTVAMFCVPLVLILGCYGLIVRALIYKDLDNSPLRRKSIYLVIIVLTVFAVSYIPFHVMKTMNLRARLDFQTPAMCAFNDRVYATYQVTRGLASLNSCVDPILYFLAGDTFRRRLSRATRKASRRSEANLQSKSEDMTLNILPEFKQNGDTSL

Usually IC50 stands for the concentration needed to halve the response being measured. Lower therefore signals inhibition by little substance. Take `Nc1ncnc2c1ncn2[C@@H]1O[C@H](COP(=O)(O)OP(=O)(O)OP(=O)(O)OP(=O)(O)OC[C@H]2O[C@@H](n3cnc4c(N)ncnc43)[C@H](O)[C@@H]2O)[C@@H](O)[C@H]1O` [Ap4A, Diadenosine 5',5"'-P^1,P^4-tetraphosphate]: the EC50 in assay [1] is roughly 0.3 µM. The half-inhibitory concentration (IC50) is 40.8 ± 12.3 µM in assay [2] and greater than 250 µM in assay [3].
